# Test results taken from article PMC5218480 (PLoS ONE, 2017).
# Tested on: MV-4-11 cells
# Assay: Gene expression microarray analysis (Affymetrix PrimeView) and GSEA
# Type: cell-based, human
# Design: RFU PODN (11730768_x_at) / Fold change /veh PODN (11730768_x_at) / RFU LINC00158 (11744669_a_at) / Fold change /veh LINC00158 (11744669_a_at) / RFU DUSP10 (11751237_a_at) / Fold change /veh DUSP10 (11751237_a_at) / RFU ID3 (11757404_x_at) / Fold change /veh ID3 (11757404_x_at) / RFU PLEKHG5 (11737974_s_at) / Fold change /veh PLEKHG5 (11737974_s_at) / RFU LRRC4B (11730491_at) / Fold change /veh LRRC4B (11730491_at) / RFU GIMAP4 (11747438_a_at) / Fold change /veh GIMAP4 (11747438_a_at) / RFU KRT8 (11758183_x_at) / Fold change /veh KRT8 (11758183_x_at) / RFU CNN1 (11734310_a_at) / Fold change /veh CNN1 (11734310_a_at) / RFU VPS37D (11726825_at) / Fold change /veh VPS37D (11726825_at) / RFU C10orf10 (11716522_x_at) / Fold change /veh C10orf10 (11716522_x_at) / RFU KIR2DL2 /// KIR2DL4 /// KIR2DL5A /// KIR2DL5B /// KIR2DS1 /// KIR2DS2 /// KIR2DS3 /// KIR2DS4 /// KIR3DL3 /// KIR3DL3 /// KIR3DS1 (11738374_at) / Fold change /veh KIR2DL2 /// KIR2DL4 /// KIR2DL5A /// KIR2DL5B /// KIR2DS1 /// KIR2DS2 /// KIR2DS3 /// KIR2DS4 /// KIR3DL3 /// KIR3DL3 /// KIR3DS1 (11738374_at) / RFU C1QL1 (11718748_at) / Fold change /veh C1QL1 (11718748_at) / RFU TMPRSS4 (11747572_a_at) / Fold change /veh TMPRSS4 (11747572_a_at) / RFU HAMP (11756126_x_at) / Fold change /veh HAMP (11756126_x_at) / RFU RNFT2 (11725882_a_at) / Fold change /veh RNFT2 (11725882_a_at) / RFU NR4A2 (11747474_a_at) / Fold change /veh NR4A2 (11747474_a_at) / RFU ABCC12 (11746883_a_at) / Fold change /veh ABCC12 (11746883_a_at) / RFU TMEM136 (11760407_x_at) / Fold change /veh TMEM136 (11760407_x_at) / RFU CLDN22 /// WWC2 (11732394_at) / Fold change /veh CLDN22 /// WWC2 (11732394_at) / RFU HLA-DPB1 (11760878_x_at) / Fold change /veh HLA-DPB1 (11760878_x_at) / RFU SPINT1 (11716480_a_at) / Fold change /veh SPINT1 (11716480_a_at) / RFU GAP43 (11754022_s_at) / Fold change /veh GAP43 (11754022_s_at) / RFU A4GNT (11735810_at) / Fold change /veh A4GNT (11735810_at) / RFU PRB3 (11715151_x_at) / Fold change /veh PRB3 (11715151_x_at) / RFU TUBB4B (11761932_at) / Fold change /veh TUBB4B (11761932_at) / RFU CAPN14 (11732068_a_at) / Fold change /veh CAPN14 (11732068_a_at) / RFU TMCC2 (11721928_a_at) / Fold change /veh TMCC2 (11721928_a_at) / RFU IRGQ (11745062_a_at) / Fold change /veh IRGQ (11745062_a_at) / RFU FAM174B (11720279_a_at) / Fold change /veh FAM174B (11720279_a_at) / RFU TMPRSS4 (11748680_a_at) / Fold change /veh TMPRSS4 (11748680_a_at) / RFU FAM212B (11763350_a_at) / Fold change /veh FAM212B (11763350_a_at) / RFU PLEKHG5 (11743358_a_at) / Fold change /veh PLEKHG5 (11743358_a_at) / RFU ZSCAN30 (11745921_a_at) / Fold change /veh ZSCAN30 (11745921_a_at) / RFU CMKLR1 (11741424_a_at) / Fold change /veh CMKLR1 (11741424_a_at) / RFU LOC101060620 /// MAPK8IP1 (11723275_at) / Fold change /veh LOC101060620 /// MAPK8IP1 (11723275_at) / RFU SPTSSB (11747773_x_at) / Fold change /veh SPTSSB (11747773_x_at) / RFU PRSS12 (11739890_at) / Fold change /veh PRSS12 (11739890_at) / RFU BIN1 (11741810_x_at) / Fold change /veh BIN1 (11741810_x_at) / RFU WNT11 (11732464_a_at) / Fold change /veh WNT11 (11732464_a_at) / RFU C10orf10 (11716521_a_at) / Fold change /veh C10orf10 (11716521_a_at) / RFU C5orf56 (11738089_at) / Fold change /veh C5orf56 (11738089_at) / RFU CYB561 (11721691_x_at) / Fold change /veh CYB561 (11721691_x_at) / RFU ANKRD19P (11752326_a_at) / Fold change /veh ANKRD19P (11752326_a_at) / RFU OR2T12 /// OR2T33 /// OR2T8 (11738714_s_at) / Fold change /veh OR2T12 /// OR2T33 /// OR2T8 (11738714_s_at) / RFU VCAN (11748164_a_at) / Fold change /veh VCAN (11748164_a_at) / RFU JSRP1 (11732532_at) / Fold change /veh JSRP1 (11732532_at) / RFU KRTAP10-11 (11738290_x_at) / Fold change /veh KRTAP10-11 (11738290_x_at) / RFU MYO3A (11730013_a_at) / Fold change /veh MYO3A (11730013_a_at) / RFU EBF3 (11725865_a_at) / Fold change /veh EBF3 (11725865_a_at) / RFU CAMK2N1 (11719241_x_at) / Fold change /veh CAMK2N1 (11719241_x_at) / RFU C5orf56 (11738088_a_at) / Fold change /veh C5orf56 (11738088_a_at) / RFU OLFML3 (11715873_a_at) / Fold change /veh OLFML3 (11715873_a_at) / RFU LOC100653217 /// NTM (11731650_a_at) / Fold change /veh LOC100653217 /// NTM (11731650_a_at) / RFU MAPK11 (11762145_a_at) / Fold change /veh MAPK11 (11762145_a_at) / RFU FIZ1 (11724087_x_at) / Fold change /veh FIZ1 (11724087_x_at) / RFU OASL (11726364_x_at) / Fold change /veh OASL (11726364_x_at) / RFU SOX15 (11748057_x_at) / Fold change /veh SOX15 (11748057_x_at) / RFU CD79A (11719716_a_at) / Fold change /veh CD79A (11719716_a_at) / RFU HIST1H1D (11736915_at) / Fold change /veh HIST1H1D (11736915_at) / RFU CASKIN2 (11723855_a_at) / Fold change /veh CASKIN2 (11723855_a_at) / RFU LOC730098 (11760151_x_at) / Fold change /veh LOC730098 (11760151_x_at) / RFU OR4N2 (11742367_at) / Fold change /veh OR4N2 (11742367_at) / RFU PRRT2 (11749266_a_at) / Fold change /veh PRRT2 (11749266_a_at) / RFU SNX32 (11753110_a_at) / Fold change /veh SNX32 (11753110_a_at) / RFU CDHR5 (11726645_a_at) / Fold change /veh CDHR5 (11726645_a_at) / RFU RCAN1 (11760418_a_at) / Fold change /veh RCAN1 (11760418_a_at) / RFU FAM167A (11723789_a_at) / Fold change /veh FAM167A (11723789_a_at) / RFU FAM26E (11764081_at) / Fold change /veh FAM26E (11764081_at) / RFU ISYNA1 (11749810_s_at) / Fold change /veh ISYNA1 (11749810_s_at) / RFU ACY1 (11761880_at) / Fold change /veh ACY1 (11761880_at) / RFU 11764098_at / Fold change /veh 11764098_at / RFU SAMD14 (11745864_x_at) / Fold change /veh SAMD14 (11745864_x_at) / RFU NPB (11741838_a_at) / Fold change /veh NPB (11741838_a_at) / RFU TMPRSS6 (11731388_a_at) / Fold change /veh TMPRSS6 (11731388_a_at) / RFU KRTAP10-2 (11738614_at) / Fold change /veh KRTAP10-2 (11738614_at) / RFU ARHGAP8 /// PRR5-ARHGAP8 (11727945_x_at) / Fold change /veh ARHGAP8 /// PRR5-ARHGAP8 (11727945_x_at) / RFU KRTAP5-7 /// NADSYN1 (11734609_at) / Fold change /veh KRTAP5-7 /// NADSYN1 (11734609_at) / RFU RASL12 (11751679_a_at) / Fold change /veh RASL12 (11751679_a_at) / RFU CDKN2B (11736163_a_at) / Fold change /veh CDKN2B (11736163_a_at) / RFU PRF1 (11729649_at) / Fold change /veh PRF1 (11729649_at) / RFU, ZNF638 /// ZNF638-IT1 / Fold change vs veh, ZNF638 /// ZNF638-IT1 / RFU, PANK3 / Fold change vs veh, PANK3 / RFU, SH3YL1 / Fold change vs veh, SH3YL1 / RFU, ZEB2 / Fold change vs veh, ZEB2 / RFU, NRIP1 / Fold change vs veh, NRIP1 / RFU, PTTG1IP / Fold change vs veh, PTTG1IP / RFU, CAPN2 / Fold change vs veh, CAPN2 / RFU, MED14 / Fold change vs veh, MED14 / RFU, SNORA58 / Fold change vs veh, SNORA58 / RFU, C1orf63 / Fold change vs veh, C1orf63 / RFU, LRRFIP1 / Fold change vs veh, LRRFIP1 / RFU, NDUFAF7 / Fold change vs veh, NDUFAF7 / RFU, SLC12A2 / Fold change vs veh, SLC12A2 / RFU, IBTK / Fold change vs veh, IBTK / RFU, ESF1 / Fold change vs veh, ESF1 / Fold change vs veh, TMEM50B / RFU, TAOK1 / Fold change vs veh, TAOK1 / RFU, ACBD3 / Fold change vs veh, ACBD3 / RFU, TMA16 / Fold change vs veh, TMA16 / RFU, RWDD3 / Fold change vs veh, RWDD3 / RFU, BCAT1 / Fold change vs veh, BCAT1 / RFU, EDEM3 / Fold change vs veh, EDEM3 / RFU, TMEM33 / Fold change vs veh, TMEM33 / RFU, WDR75 / Fold change vs veh, WDR75 / RFU, AHCTF1 / Fold change vs veh, AHCTF1 / RFU, TFRC / Fold change vs veh, TFRC / RFU, ZDHHC17 / Fold change vs veh, ZDHHC17 / RFU, NOM1 / Fold change vs veh, NOM1 / RFU, ARL8B / Fold change vs veh, ARL8B / RFU, ZBTB11 / Fold change vs veh, ZBTB11 / RFU, TAMM41 / Fold change vs veh, TAMM41 / RFU, KIAA1704 /// LOC100996395 / Fold change vs veh, KIAA1704 /// LOC100996395 / RFU, ING1 / Fold change vs veh, ING1 / RFU, TRMT61B / Fold change vs veh, TRMT61B / RFU, FUBP3 / Fold change vs veh, FUBP3 / RFU, TP53 / Fold change vs veh, TP53 / RFU, TNKS2 / Fold change vs veh, TNKS2 / RFU, ZFP14 / Fold change vs veh, ZFP14 / RFU, ACTR2 / Fold change vs veh, ACTR2 / RFU, PPP3R1 / Fold change vs veh, PPP3R1 / RFU, PIK3R1 / Fold change vs veh, PIK3R1 / RFU, HNRNPA1 / Fold change vs veh, HNRNPA1 / RFU, RNF170 / Fold change vs veh, RNF170 / RFU, ZNF28 / Fold change vs veh, ZNF28 / RFU, RNGTT / Fold change vs veh, RNGTT / RFU, OGT / Fold change vs veh, OGT / RFU, BRD1 / Fold change vs veh, BRD1 / RFU, MARS / Fold change vs veh, MARS / RFU, ZNF655 / Fold change vs veh, ZNF655 / RFU, FAHD1 / Fold change vs veh, FAHD1 / RFU, BDP1 / Fold change vs veh, BDP1 / RFU, LRRCC1 / Fold change vs veh, LRRCC1 / RFU, ARID1A / Fold change vs veh, ARID1A / RFU, ZNF146 / Fold change vs veh, ZNF146 / RFU, ZNF330 / Fold change vs veh, ZNF330 / RFU, GPN3 / Fold change vs veh, GPN3 / RFU, C9orf123 / Fold change vs veh, C9orf123 / RFU, N4BP2L2 / Fold change vs veh, N4BP2L2 / RFU, ARFIP1 / Fold change vs veh, ARFIP1 / RFU, FAM179B / Fold change vs veh, FAM179B / RFU, BCL10 / Fold change vs veh, BCL10 / RFU, UHRF1BP1L / Fold change vs veh, UHRF1BP1L / RFU, BET1 / Fold change vs veh, BET1 / RFU, CNOT2 / Fold change vs veh, CNOT2 / RFU, ZNF268 / Fold change vs veh, ZNF268 / Fold change vs veh, ZNF507 / RFU, DGCR2 / Fold change vs veh, DGCR2 / RFU, WDSUB1 / Fold change vs veh, WDSUB1 / Fold change vs veh, HSP90B1 /// MIR3652 / RFU, ADSS / Fold change vs veh, ADSS / RFU, GK / Fold change vs veh, GK / RFU, ZNF148 / Fold change vs veh, ZNF148 / RFU, TAF9 / Fold change vs veh, TAF9 / RFU, SLC1A5 / Fold change vs veh, SLC1A5 / RFU, SLMO2 / Fold change vs veh, SLMO2 / RFU, ABCC4 / Fold change vs veh, ABCC4 / RFU, LOC101060439 /// RAP1B / Fold change vs veh, LOC101060439 /// RAP1B / RFU, RFX7 / Fold change vs veh, RFX7 / RFU, GTPBP10 / Fold change vs veh, GTPBP10 / RFU, CNEP1R1 / Fold change vs veh, CNEP1R1 / RFU, BIVM-ERCC5 /// ERCC5 / Fold change vs veh, BIVM-ERCC5 /// ERCC5 / RFU, ILF3 / Fold change vs veh, ILF3 / RFU 11762660_at / Fold change /veh 11762660_at / RFU VCAN (11757783_s_at) / Fold change /veh VCAN (11757783_s_at) / RFU DDX43 (11728927_at) / Fold change /veh DDX43 (11728927_at) / RFU KRT8 (11758188_x_at) / Fold change /veh KRT8 (11758188_x_at) / RFU NKD1 (11759106_at) / Fold change /veh NKD1 (11759106_at) / RFU SRD5A1 (11742802_a_at) / Fold change /veh SRD5A1 (11742802_a_at) / RFU TPSAB1 /// TPSB2 (11721975_s_at) / Fold change /veh TPSAB1 /// TPSB2 (11721975_s_at) / RFU GSTM3 (11746129_a_at) / Fold change /veh GSTM3 (11746129_a_at) / RFU IL23R (11737362_x_at) / Fold change /veh IL23R (11737362_x_at) / RFU TMEM51 (11727254_a_at) / Fold change /veh TMEM51 (11727254_a_at) / RFU PIWIL2 (11732686_x_at) / Fold change /veh PIWIL2 (11732686_x_at) / RFU ORM1 (11744905_x_at) / Fold change /veh ORM1 (11744905_x_at) / RFU CCDC152 (11743942_at) / Fold change /veh CCDC152 (11743942_at) / RFU ECM1 (11717891_a_at) / Fold change /veh ECM1 (11717891_a_at) / RFU IL23R (11748794_a_at) / Fold change /veh IL23R (11748794_a_at) / RFU TNFAIP8L3 (11732012_x_at) / Fold change /veh TNFAIP8L3 (11732012_x_at) / RFU MBOAT4 (11741988_at) / Fold change /veh MBOAT4 (11741988_at) / RFU 11764193_at / Fold change /veh 11764193_at / RFU TMEM53 (11763286_at) / Fold change /veh TMEM53 (11763286_at) / RFU MAGEB2 (11727129_at) / Fold change /veh MAGEB2 (11727129_at) / RFU TMEM200A (11744735_a_at) / Fold change /veh TMEM200A (11744735_a_at) / RFU CCDC152 (11751479_a_at) / Fold change /veh CCDC152 (11751479_a_at) / RFU FAM211A (11726209_a_at) / Fold change /veh FAM211A (11726209_a_at) / RFU RGS16 (11746705_a_at) / Fold change /veh RGS16 (11746705_a_at) / RFU VCAN (11755009_s_at) / Fold change /veh VCAN (11755009_s_at) / RFU RHOB (11743442_s_at) / Fold change /veh RHOB (11743442_s_at) / RFU RGS16 (11720943_a_at) / Fold change /veh RGS16 (11720943_a_at) / RFU RGS16 (11720944_at) / Fold change /veh RGS16 (11720944_at) / RFU, VPS4B / Fold change vs veh, VPS4B / RFU, CREB1 / Fold change vs veh, CREB1 / RFU, DNAJC13 / Fold change vs veh, DNAJC13 / RFU, GNAQ / Fold change vs veh, GNAQ / RFU, CDK5R1 / Fold change vs veh, CDK5R1 / RFU, ZRANB3 / Fold change vs veh, ZRANB3 / RFU, CUL4A / Fold change vs veh, CUL4A / RFU, CCNY / Fold change vs veh, CCNY / RFU, UFL1 / Fold change vs veh, UFL1 / RFU, COG3 / Fold change vs veh, COG3 / RFU, DIAPH2 / Fold change vs veh, DIAPH2 / RFU, SKA2 / Fold change vs veh, SKA2 / RFU, AFF3 / Fold change vs veh, AFF3 / RFU, LMF1 / Fold change vs veh, LMF1 / RFU, IPO11 / Fold change vs veh, IPO11 / RFU, DFFB / Fold change vs veh, DFFB / RFU, FOXP1 / Fold change vs veh, FOXP1 / RFU, CARD8 / Fold change vs veh, CARD8 / RFU, STRN3 / Fold change vs veh, STRN3 / RFU, ADK / Fold change vs veh, ADK / RFU, RASSF2 / Fold change vs veh, RASSF2 / RFU, WIPF1 / Fold change vs veh, WIPF1 / RFU, LARP1B / Fold change vs veh, LARP1B / RFU, RASA1 / Fold change vs veh, RASA1 / RFU, RB1 / Fold change vs veh, RB1 / RFU, PPFIA1 / Fold change vs veh, PPFIA1 / RFU, MAT2A / Fold change vs veh, MAT2A / RFU, CCT5 / Fold change vs veh, CCT5 / RFU, WDR92 / Fold change vs veh, WDR92 / RFU, CUX1 / Fold change vs veh, CUX1 / RFU, TTC7A / Fold change vs veh, TTC7A / RFU, TMEM135 / Fold change vs veh, TMEM135 / RFU, DEPTOR / Fold change vs veh, DEPTOR / RFU, CPM / Fold change vs veh, CPM / RFU, DNAJB6 / Fold change vs veh, DNAJB6 / RFU, CACNA2D3 / Fold change vs veh, CACNA2D3 / RFU, DTX4 / Fold change vs veh, DTX4 / RFU, TFCP2 / Fold change vs veh, TFCP2 / RFU, GMCL1 /// GMCL1P1 / Fold change vs veh, GMCL1 /// GMCL1P1 / RFU, AEBP2 / Fold change vs veh, AEBP2 / RFU, SNHG1 /// SNORD22 /// SNORD25 /// SNORD26 /// SNORD27 /// SNORD28 /// SNORD29 /// SNORD31 / Fold change vs veh, SNHG1 /// SNORD22 /// SNORD25 /// SNORD26 /// SNORD27 /// SNORD28 /// SNORD29 /// SNORD31 / Fold change (Aza/veh), C12orf56 (ProbeSet 11735607_a_at) / Fold change (ACY-1035/veh), C12orf56 (ProbeSet 11735607_a_at) / Fold change (Aza/veh), FGFR1OP (ProbeSet 11751329_s_at) / Fold change (ACY-1035/veh), FGFR1OP (ProbeSet 11751329_s_at) / Fold change (Aza/veh), VPS36 (ProbeSet 11739960_a_at) / Fold change (ACY-1035/veh), VPS36 (ProbeSet 11739960_a_at) / RFU SYPL1 (11715823_x_at) / Fold change /veh SYPL1 (11715823_x_at) / RFU IGFBP7 (11715501_s_at) / Fold change /veh IGFBP7 (11715501_s_at) / RFU REEP3 (11722064_at) / Fold change /veh REEP3 (11722064_at) / RFU IGLL1 (11728026_x_at) / Fold change /veh IGLL1 (11728026_x_at): dose or concentration left out as unconfirmed
# Settings: ProbeSet 11721559_s_at; LIST B
structure (smiles),measurement,value
Nc1ccc(-c2cccs2)cc1NC(=O)c1ccc2c(c1)cc(C1CC1)n2CCN1CCOCC1 [ACY-1035],"Fold change vs veh, ZNF638 /// ZNF638-IT1",0.85
